Data published in patent US9815851B2, “Pyrrolo carboxamides as modulators of orphan nuclear receptor RAR-related orphan receptor-gamma (RORγ, NR1F3) activity and for the treatment of chronic inflammatory and autoimmune diseases” (PHENEX PHARMACEUTICALS AG, priority 2011, dated 2017).
Like-named read-outs stand apart in the source and are kept apart here.

Key:
[1] = target: T1, RORγ ligand binding domain (LBD) (Homo sapiens, UniProt P51449); experiment: TR-FRET Activity Assay (ligand sensing, RORγ-LBD / coactivator peptide interaction, LANCE); format: biochemical
T1 construct: made in house; host or cells: E. coli BL-21 (BL3), vector pDEST15
T1 sequence (P51449 269-508 limits assumed): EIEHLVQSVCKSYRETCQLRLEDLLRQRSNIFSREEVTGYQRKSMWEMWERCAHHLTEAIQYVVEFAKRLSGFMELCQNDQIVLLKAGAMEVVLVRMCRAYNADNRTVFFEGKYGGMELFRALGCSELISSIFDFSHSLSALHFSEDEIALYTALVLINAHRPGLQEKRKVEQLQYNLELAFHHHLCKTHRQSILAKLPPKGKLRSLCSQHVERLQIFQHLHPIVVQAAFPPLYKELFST

[2] = target: T2, RORγ (UniProt P51449); experiment: RORγ Gal4 Reporter Gene Assay in 293T cells (firefly and renilla luciferase); format: cell-based, human
T2 sequence (P51449 1-518): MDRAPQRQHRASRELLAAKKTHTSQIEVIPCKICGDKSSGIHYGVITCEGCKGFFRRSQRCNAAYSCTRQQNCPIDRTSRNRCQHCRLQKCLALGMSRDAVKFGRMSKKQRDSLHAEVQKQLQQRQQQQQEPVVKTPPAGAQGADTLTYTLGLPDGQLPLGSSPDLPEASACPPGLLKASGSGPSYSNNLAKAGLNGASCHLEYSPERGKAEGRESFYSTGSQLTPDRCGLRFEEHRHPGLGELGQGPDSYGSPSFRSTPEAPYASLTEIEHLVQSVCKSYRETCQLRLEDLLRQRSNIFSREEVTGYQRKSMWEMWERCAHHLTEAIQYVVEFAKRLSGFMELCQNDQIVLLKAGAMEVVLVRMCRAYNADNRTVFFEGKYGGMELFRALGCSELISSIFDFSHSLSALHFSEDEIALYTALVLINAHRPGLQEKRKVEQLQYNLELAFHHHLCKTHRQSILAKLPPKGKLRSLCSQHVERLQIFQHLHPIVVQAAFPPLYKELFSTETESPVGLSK

[3] = first value of the cell FRET/FF/REN, TR-FRET activity assay, read-out: pIC50 (FRET) (converted)
[4] = second value of the cell, Gal4 reporter gene assay in 293T cells, firefly luciferase
[5] = third value of the cell, Gal4 reporter gene assay in 293T cells, renilla normalised luciferase

With `Cc1c(C(=O)NC2CCOCC2)cc(-c2cc(C(=O)NCC(F)(F)F)cc(C3(C)CC3)c2)n1CC1CCCCC1` [17/352] the IC50 [1, 3] was 0.631 µM, the “pIC50 (FF)” value [2, 4] was 7.5 and the “pIC50 (REN)” value [2, 5] was 7.5.
With `Cc1c(C(=O)NCC(C)(C)C(=O)O)cc(-c2cc(C(C)(C)C)nc(C(C)(C)C)n2)n1CC1CCCCC1` [17/353] the IC50 [1, 3] was 2 µM, the “pIC50 (FF)” value [2, 4] was 6.8 and the “pIC50 (REN)” value [2, 5] was 6.8.
`Cc1c(C(=O)N[C@H]2C[C@H](C(=O)O)C2)cc(-c2cc(C(C)(C)C)nc(C(C)(C)C)n2)n1CC1CCCCC1` [17/354] was tested, and the IC50 [1, 3] was 1 µM, the “pIC50 (FF)” value [2, 4] was 7.0 and the “pIC50 (REN)” value [2, 5] was 7.0.
For `Cc1c(C(=O)NCC(C)(C)O)cc(-c2cc(C3(C)CC3)nc(C(C)(C)C)n2)n1CC1CCCCC1` [17/355], the IC50 [1] was 0.316 µM, the “pIC50 (FF)” value [2] was 6.5/6.6/6.6 and the “pIC50 (REN)” value [2] was 6.5/6.6/6.6.
With `Cc1c(C(=O)NCC(C)(C)O)cc(-c2cc(C(C)(C)C)nc(C3(C)CC3)n2)n1CC1CCCCC1` [17/356] the IC50 [1, 3] was 0.398 µM, the “pIC50 (FF)” value [2, 4] was 6.7 and the “pIC50 (REN)” value [2, 5] was 6.7.
With `Cc1c(C(=O)N[C@H]2C[C@H](C(=O)O)C2)cc(-c2cc(C(=O)NCC(F)(F)F)cc(C3(C)CC3)c2)n1CC1CCCCC1` [17/357] the IC50 [1, 3] was 2 µM, the “pIC50 (FF)” value [2, 4] was 6.7 and the “pIC50 (REN)” value [2, 5] was 6.8.
`Cc1c(C(=O)N[C@H]2C[C@H](C(=O)O)C2)cc(-c2cc(C(=O)N[C@@H](C)C(F)(F)F)cc(C3(C)CC3)c2)n1CC1CCCCC1` [17/358] was tested, and the IC50 [1, 3] was 1 µM, the “pIC50 (FF)” value [2, 4] was 6.3 and the “pIC50 (REN)” value [2, 5] was 6.2.
In the case of `Cc1c(C(=O)N[C@H]2C[C@H](C(=O)O)C2)cc(-c2cc(C(=O)N[C@H](C)C(F)(F)F)cc(C3(C)CC3)c2)n1CC1CCCCC1` [17/359], the IC50 [1, 3] is reported as 3.16 µM, the “pIC50 (FF)” value [2, 4] is reported as 7.4 and the “pIC50 (REN)” value [2, 5] is reported as 7.4.
With `Cc1c(C(=O)N[C@H]2C[C@H](C(=O)O)C2)cc(-c2cc(C(=O)NC(C)(C)C(F)(F)F)cc(C3(C)CC3)c2)n1CC1CCCCC1` [17/360] the IC50 [1, 3] was 6.31 µM, the “pIC50 (FF)” value [2, 4] was 7.3 and the “pIC50 (REN)” value [2, 5] was 7.4.
In the case of `Cc1c(C(=O)NCCC(C)(C)C(=O)O)cc(-c2ccc(S(=O)(=O)NC3(C#N)CC3)c(C(F)(F)F)c2)n1CC1CCCCC1` [17/361], the IC50 [1, 3] is reported as 2 µM, the “pIC50 (FF)” value [2, 4] is reported as 6.4 and the “pIC50 (REN)” value [2, 5] is reported as 6.4.
With `Cc1c(C(=O)N[C@H]2C[C@H](C(=O)O)C2)cc(-c2ccc(S(=O)(=O)NC3(C#N)CC3)c(C(F)(F)F)c2)n1CC1CCCCC1` [17/362] the IC50 [1, 3] was 1.26 µM, the “pIC50 (FF)” value [2, 4] was 5.9 and the “pIC50 (REN)” value [2, 5] was 5.8.
`Cc1c(C(=O)NC2CCOCC2)cc(-c2ccc(S(=O)(=O)NC(C)(C)C)c3c(F)cccc23)n1CC1CCCCC1` [17/363] was tested, and the IC50 [1, 3] was 1 µM, the “pIC50 (FF)” value [2, 4] was 7.4 and the “pIC50 (REN)” value [2, 5] was 7.5.
In the case of `Cc1c(C(=O)N[C@H]2C[C@H](C(=O)O)C2)cc(-c2ccc(S(=O)(=O)NC(C)(C)C)c3c(F)cccc23)n1CC1CCCCC1` [17/364], the IC50 [1, 3] is reported as 1 µM, the “pIC50 (FF)” value [2, 4] is reported as 6.9 and the “pIC50 (REN)” value [2, 5] is reported as 7.0.
`Cc1c(C(=O)NCC(C)(C)O)cc(-c2ccc(S(=O)(=O)NC(C)(C)C)c3c(F)cccc23)n1CC1CCCCC1` [17/365] was tested, and the IC50 [1, 3] was 1.26 µM, the “pIC50 (FF)” value [2, 4] was 7.0 and the “pIC50 (REN)” value [2, 5] was 7.0.
`Cc1c(C(=O)NCC(C)(C)O)cc(-c2cc(C(C)(C)C)nc3ccccc23)n1CC1CCCCC1` [17/366] was tested, and the IC50 [1, 3] was 5.01 µM, the “pIC50 (FF)” value [2, 4] was 6.6 and the “pIC50 (REN)” value [2, 5] was 6.3.
For `Cc1c(C(=O)NCC(C)(C)O)cc(-c2cc(C(C)(C)C)cc(C(=O)NC(C)(C)C)c2Cl)n1CC1CCCCC1` [17/367], the IC50 [1, 3] was 5.01 µM, the “pIC50 (FF)” value [2, 4] was 6.4 and the “pIC50 (REN)” value [2, 5] was 6.1.
In the case of `Cc1c(C(=O)N[C@H]2C[C@H](C(=O)O)C2)cc(-c2cc(C(C)(C)C)cc(C(=O)NC(C)(C)C)c2Cl)n1CC1CCCCC1` [17/368], the IC50 [1, 3] is reported as 7.94 µM, the “pIC50 (FF)” value [2, 4] is reported as 6.4 and the “pIC50 (REN)” value [2, 5] is reported as 6.2.
For `Cc1c(C(=O)NC2CCOCC2)cc(-c2ccc(S(=O)(=O)NC(C)(C)C)c3cnccc23)n1CC1CCCCC1` [17/369], the IC50 [1] was 1.26 µM, the “pIC50 (FF)” value [2] was 5.9/7.5/7.5 and the “pIC50 (REN)” value [2] was 5.9/7.5/7.5.
In the case of `Cc1c(C(=O)NCC(C)(C)O)cc(-c2ccc(S(=O)(=O)NC(C)(C)C)c3ccccc23)n1CC1CCCC(F)C1` (stereo not drawn) [17/370], the IC50 [1, 3] is reported as 2 µM, the “pIC50 (FF)” value [2, 4] is reported as 7.2 and the “pIC50 (REN)” value [2, 5] is reported as 7.3.
